Laboratory results taken from patent US9012470B2 (Dart NeuroScience (Cayman) Ltd., priority 2010, dated 2015).
Structures can show the parent of a compound that is named as a salt.

Key:
[1] = tested on: benzodiazepine site of GABAA; experiment: Binding assay, benzodiazepine site of GABAA (binding assay 1: rat brain, (3H)-flunitrazepam; binding assay 2: bovine hippocampal membranes, [3H]-RY80); conditions: radioligand binding; for % Inhibition at 0.1 μM: 0.1 μM test compound; for % Inhibition at 10 μM: 10 μM test compound
In short: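 Assay 1: rat whole-brain (minus cerebellum) membranes in Na–K phosphate pH 7.4, 1 nM (3H)-flunitrazepam, 60 min at 25° C., ± 30 μM GABA; nonspecific with 10 μM diazepam. Assay 2: bovine hippocampal membranes, 0.8 nM [3H]-RY80 in 50 mM Tris-Citrate pH 7.8/200 mM NaCl, 60 min at 0-4° C.; nonspecific with 0.5 μM L-655,708. Filtration read-out.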

[2] = tested on: GABAA receptors; experiment: Electrophysiology assay, two-electrode voltage clamp in Xenopus oocytes expressing GABAA receptors; type: cell-based; conditions: GABA EC10, screening concentration of 10 μM, subunit combination not stated
Procedure: mRNA was prepared from lyophilized plasmid pellets containing cDNA inserts encoding the specific GABAA receptor subunit. cDNAs encoding the α2, α3, and γ3 subunits were subcloned into pBluescript, SK^−. cDNAs encoding the α1 and α5 subunits were subcloned into prC while cDNA encoding the β2 subunit was subcloned into pcDNA1. The cDNA construct encoding the γ2s subunit is in the pGH19 expression construct. Overnight cultures of transformed DH5a bacterial cells were performed to grow sufficient quantities for maxiprep isolation of the plasmid cDNA. The resulting plasmid cDNA was linearized by digestion with an appropriate restriction enzyme that cleaves distal to the cDNA insert (XbaI for α1,2, β2, and γ3 or NotI for α3,5 and γ2, respectively). Following digestion, plasmid cDNA was treated with proteinase K and extracted with phenol/chloroform/isoamyl alcohol, followed by ethanol precipitation. cDNA quality was assessed by agarose-gel electrophoresis (1.5% agarose gel). Samples were stored at −20° C. until use. In vitro transcription was performed with T7 RNA polymerase. mRNA was then stored at −80° C. until use. Plasmids were linearized with appropriate restriction enzymes before in vitro transcription using the Message Machine kit (Ambion, Austin, Tex.).
GABAA Receptor Expression in Xenopus oocytes.
GABAA receptor expression in Xenopus oocytes: Following 45 min of 0.15% Tricaine anesthesia, an ovarian section containing the follicular oocytes was removed from the frog through a lateral abdominal incision. Oocytes were immediately placed in a calcium-free solution (NaCl 96 mM, MgCl2 1 mM, KCl 2 mM, Hepes 50 mM, pyruvate 2.5 mM, gentamycin 100 μg/mL, penicillin-streptomycin 50 U/mL, pH 7.4). Following 1.5-2 hour incubation in 0.2% collagenase (type II, Sigma Chemical Co., St. Louis, Mo.) at room temperature, individual Dumont stage V and VI oocytes were transferred to an incubator and maintained overnight in Barth's solution (NaCl 84 mM, NaHCO3 2.4 mM, MgSO4 0.82 mM, KCl 1 mM, Ca(NO3)2 0.33 mM, CaCl2 0.41 mM, Tris/HCl 7.5 mM, pyruvate 2.5 mM, gentamycin 50 μg/mL, penicillin-streptomycin, 100 units/mL, pH 7.4) at 18-20° C. and used for experiments 1-5 days post-injection. Oocytes were injected solution using an electronic microinjector (Drummond, Broomall, Pa.) with 50 nL of RNA containing 0.3-0.5 ng of each subunit RNA in a 1:1:1 ratio. The injected oocytes were used for experiments after 1-5 days of incubation in Barth's solution at 18-20° C.
Measurements of ion currents from oocytes expressing GABAA receptors were performed using a Warner two-electrode voltage-clamp amplifier (Warner Instruments, Inc., Foster City, Calif.) (Park-Chung, M., et al. (1999) Brain Res. 830: 72-87 incorporated herein in its entirety). Microelectrodes were fabricated from borosilicate glass capillaries with a programmed pipette puller (Sutter Instrument Co., Calif.). Microelectrode resistance was 1-3 MΩ when filled with 3 M KCl. The oocyte recording chamber was continuously perfused with Ringer solution. Oocytes were clamped at a holding potential of −70 mV during data acquisition. The membrane current was filtered at 10 Hz and sampled at 100 Hz. Compounds were applied by a gravity-driven external perfusion system. The working volume of the recording chamber was 30 μL and the rate of the perfusion was approximately 50 μL/sec. Compound application was 10-20 sec followed by a 90 sec wash. Data acquisition and external perfusion was computer controlled by custom-developed software. All experiments were performed at room temperature (22-24° C.). Dose-response data from each oocyte were fitted to the Hill equation by non-linear regression using the equation: IGABA=Emax/(1+(EC50/c)^n^H)
Emax is the maximum response, EC50 is the concentration producing 50% of the maximal response, nH is the Hill coefficient and c is the concentration of agonist. […]

SMILES	% Inhibition at 0.1 μM [1]	% Inhibition at 10 μM [1]	EP Modulation [2]
O=C(Nc1ccccc1)n1ncc2c3nn(-c4ccccc4)c(=O)c-3c[nH]c21 [Compound 6h, 3-oxo-N,2-diphenyl-2,3-dihydrodipyrazolo[3,4-b:3′,4′-d]pyridine-6(5H)-carboxamide]	C (C indicates % inhibition <20%)	B (B indicates % inhibition <80% and >20%)	D (D indicates negative modulation >20%)
CCCCNC(=O)n1ncc2c3nn(-c4ccccc4)c(=O)c-3c[nH]c21 [Compound 6f, N-butyl-3-oxo-2-phenyl-2,3-dihydrodipyrazolo[3,4-b:3′,4′-d]pyridine-6(5H)-carboxamide.TFA]		A (A indicates % inhibition >80%)	D (D indicates negative modulation >20%)
CCNC(=S)n1ncc2c3nn(-c4ccccc4)c(=O)c-3c[nH]c21 [Compound 6ar, N-ethyl-3-oxo-2-phenyl-2,3-dihydrodipyrazolo[3,4-b:3′,4′-d]pyridine-6(5H)-carbothioamide]		A (A indicates % inhibition >80%)	E (E indicates negative modulation <20%)
O=C(NC1CC1)n1ncc2c3nn(-c4ccccc4)c(=O)c-3c[nH]c21 [Compound 6j, N-cyclopropyl-3-oxo-2-phenyl-2,3-dihydrodipyrazolo[3,4-b:3′,4′-d]pyridine-6(5H)-carboxamide]	C (C indicates % inhibition <20%)	A (A indicates % inhibition >80%)	E (E indicates negative modulation <20%)
CCNC(=O)n1ncc2c3nn(-c4ccccc4)c(=O)c-3c[nH]c21 [Compound 6b, N-ethyl-3-oxo-2-phenyl-2,3-dihydrodipyrazolo[3,4-b:3′,4′-d]pyridine-6(5H)-carboxamide]	A (A indicates % inhibition >80%)	A (A indicates % inhibition >80%)	D (D indicates negative modulation >20%)
CC(C)NC(=O)n1ncc2c3nn(-c4ccccn4)c(=O)c-3c[nH]c21 [Compound 6n, N-isopropyl-3-oxo-2-(pyridin-2-yl)-2,3-dihydrodipyrazolo[3,4-b:3′,4′-d]pyridine-6(5H)-carboxamide]	C (C indicates % inhibition <20%)	C (C indicates % inhibition <20%)	E (E indicates negative modulation <20%)
CCNC(=S)n1ncc2c3nn(-c4ccc(Cl)cc4)c(=O)c-3c[nH]c21 [Compound 6as, 2-(4-chlorophenyl)-N-ethyl-3-oxo-2,3-dihydrodipyrazolo[3,4-b:3′,4′-d]pyridine-6(5H)-carbothioamide]		A (A indicates % inhibition >80%)	D (D indicates negative modulation >20%)
CCNC(=O)n1ncc2c3nn(-c4ccc(C(F)(F)F)cc4)c(=O)c-3c[nH]c21 [Compound 6ae, N-ethyl-3-oxo-2-(4-(trifluoromethyl)phenyl)-2,3-dihydrodipyrazolo[3,4-b:3′,4′-d]pyridine-6(5H)-carboxamide]		A (A indicates % inhibition >80%)	E (E indicates negative modulation <20%)
CCNC(=O)n1nc(C)c2c3nn(-c4ccccc4)c(=O)c-3c[nH]c21 [Compound 6l, N-ethyl-8-methyl-3-oxo-2-phenyl-2,3-dihydrodipyrazolo[3,4-b:3′,4′-d]pyridine-6(5H)-carboxamide]	A (A indicates % inhibition >80%)	A (A indicates % inhibition >80%)	D (D indicates negative modulation >20%)
CCNC(=O)n1cc2[nH]cc3c(=O)n(-c4ccccc4)nc-3c2c1 [Compound 13b, N-Ethyl-3-oxo-2-phenyl-2,3-dihydropyrazolo[3,4-d]pyrrolo[3,4-b]pyridine-7(5H)-carboxamide]	A (A indicates % inhibition >80%)	A (A indicates % inhibition >80%)	D (D indicates negative modulation >20%)
CCCCNC(=O)n1cc2[nH]cc3c(=O)n(-c4ccccc4F)nc-3c2c1 [Compound 13e, N-butyl-2-(2-fluorophenyl)-3-oxo-2,3-dihydropyrazolo[3,4-d]pyrrolo[3,4-b]pyridine-7(5H)-carboxamide]	B (B indicates % inhibition <80% and >20%)	A (A indicates % inhibition >80%)	E (E indicates negative modulation <20%)
CCNC(=O)n1cc2[nH]cc3c(=O)n(-c4ccccc4)nc-3c2n1 [Compound 21a]	B (B indicates % inhibition <80% and >20%)	C (C indicates % inhibition <20%)	D (D indicates negative modulation >20%)
CCNC(=O)n1cc2[nH]cc3c(=O)n(-c4ccc(F)cc4)nc-3c2c1 [Compound 13f, N-Ethyl-2-(4-fluorophenyl)-3-oxo-2,3-dihydropyrazolo[3,4-d]pyrrolo[3,4-b]pyridine-7(5H)-carboxamide]	A (A indicates % inhibition >80%)	A (A indicates % inhibition >80%)	D (D indicates negative modulation >20%)
CCNC(=O)n1ncc2c3nn(-c4cccc(C(F)(F)F)c4)c(=O)c-3c[nH]c21 [Compound 6ai, N-ethyl-3-oxo-2-(3-(trifluoromethyl)phenyl)-2,3-dihydrodipyrazolo[3,4-b:3′,4′-d]pyridine-6(5H)-carboxamide]	C (C indicates % inhibition <20%)	A (A indicates % inhibition >80%)	0%
CC(C)N1CCN(C(=O)n2ncc3c4nn(-c5ccccc5)c(=O)c-4c[nH]c32)CC1 [Compound 7d, 6-(4-isopropylpiperazine-1-carbonyl)-2-phenyl-5,6-dihydrodipyrazolo[3,4-b:3′,4′-d]pyridin-3(2H)-one]	C (C indicates % inhibition <20%)	C (C indicates % inhibition <20%)	Positive
CCNC(=O)n1ncc2c3nn(-c4ccc(Br)cc4)c(=O)c-3c[nH]c21 [Compound 6w, 2-(4-bromophenyl)-N-ethyl-3-oxo-2,3-dihydrodipyrazolo[3,4-b:3′,4′-d]pyridine-6(5H)-carboxamide.TFA]		A (A indicates % inhibition >80%)	E (E indicates negative modulation <20%)
CCNC(=O)n1ncc2c3nn(-c4cccc(Cl)c4)c(=O)c-3c[nH]c21 [Compound 6ad, 2-(3-chlorophenyl)-N-ethyl-3-oxo-2,3-dihydrodipyrazolo[3,4-b:3′,4′-d]pyridine-6(5H)-carboxamide]		A (A indicates % inhibition >80%)	E (E indicates negative modulation <20%)
